Data from PMC10940802 (Computational and Structural Biotechnology Journal, 2024).

What was measured:
Assay in all cases: UPLC glycosylation assay, […] nm
Format in all cases: biochemical, Periploca forrestii
Conditions in all cases: UDP-glucose as sugar donor; 10 mM PBS pH 8.0, 37 °C
PfUGT74B4 = test system: PfUGT74B4
PfUGT92A8 = test system: PfUGT92A8
PfUGT74E7 = test system: PfUGT74E7
PfUGT75C6 = test system: PfUGT75C6

Row | Structure (SMILES) | Km (PfUGT74B4) | Km (PfUGT92A8) | Km (PfUGT74E7) | Km (PfUGT75C6)
1 | O=C1CC(O)(c2ccc(O)cc2)Oc2cc(O)cc(O)c21 (centres unmarked) [2-Hydroxynaringenin] | 47.8 µM | 51.4 µM | – | –
2 | O=c1cc(-c2ccc(O)c(O)c2)oc2c([C@@H]3O[C@H](CO)[C@@H](O)[C@H](O)[C@H]3O)c(O)cc(O)c12 [Orientin] | – | 218 µM | – | –
3 | O=c1cc(-c2ccc(O)cc2)oc2c([C@@H]3O[C@H](CO)[C@@H](O)[C@H](O)[C@H]3O)c(O)cc(O)c12 [Vitexin] | 307 µM | 94.2 µM | – | –
4 | O=C(CCc1ccc(O)cc1)c1c(O)cc(O)cc1O [Phloretin] | 45.6 µM | 34.7 µM | – | –
5 | O=c1cc(-c2ccc(O)cc2)oc2cc(O)c([C@@H]3O[C@H](CO)[C@@H](O)[C@H](O)[C@H]3O)c(O)c12 [Isovitexin] | 58.6 µM | 78.2 µM | – | –

More lines, now with the values ahead:

Row | Km (PfUGT74B4) | Km (PfUGT92A8) | Km (PfUGT74E7) | Km (PfUGT75C6) | Structure (SMILES)
6 | 2.23 µM | – | – | – | COc1ccc(-c2cc(=O)c3c(O)cc(O)cc3o2)cc1 [Acacetin]
7 | 50.2 µM | 148 µM | 5.97 µM | 29 µM | O=c1cc(-c2ccc(O)cc2)oc2cc(O)cc(O)c12 [Apigenin]
8 | 58.3 µM | 252 µM | 7.75 µM | 28.4 µM | O=c1cc(-c2ccc(O)c(O)c2)oc2cc(O)cc(O)c12 [Luteolin]
9 | 65.2 µM | 134 µM | – | – | O=c1cc(-c2ccc(O)c(O)c2)oc2cc(O)c([C@@H]3O[C@H](CO)[C@@H](O)[C@H](O)[C@H]3O)c(O)c12 [Isoorientin]
